Laboratory results published in patent US8614327B2 (Vertex Pharmaceuticals Incorporated, priority 2004, dated 2013).

Target: T1, ΔF508-CFTR (Homo sapiens, UniProt P13569, DEL508-508)
T1 construct: expressed in transfected cells
Experiment: Membrane potential optical (FRET/VIPR) assay, identification of potentiator compounds
Assay type: cell-based
Details: Table 3, assay not given; for % Activity: relative efficacy
Excerpt: I) Membrane Potential Optical Methods for Assaying ΔF508-CFTR Modulation Properties of Compounds The optical membrane potential assay utilized voltage-sensitive FRET sensors described by Gonzalez and Tsien (See, Gonzalez, J. E. and R. Y. Tsien (1995) “Voltage sensing by fluorescence resonance energy transfer in single cells” Biophys J 69(4): 1272-80, and Gonzalez, J. E. and R. Y. Tsien (1997) “Improved indicators of cell membrane potential that use fluorescence resonance energy transfer” Chem Biol 4(4): 269-77) in combination with instrumentation for measuring fluorescence changes such as the Voltage/Ion Probe Reader (VIPR) (See, […]. Oades, et al. (1999) “Cell-based assays and instrumentation for screening ion-channel targets” Drug Discov Today 4(9): 431-439). These voltage sensitive assays are based on the change in fluorescence resonant energy transfer (FRET) between the membrane-soluble, voltage-sensitive dye, DiSBAC2(3), and a fluorescent phospholipid, CC2-DMPE, which is attached to the outer leaflet of the plasma membrane and acts as a FRET donor. Changes in membrane potential (Vm) cause the negatively charged DiSBAC2(3) to redistribute across the plasma membrane and the amount of energy transfer from CC2-DMPE changes accordingly. The changes in fluorescence emission were monitored using VIPR which is an integrated liquid handler and fluorescent detector designed to conduct cell-based screens in 96- or 384-well microtiter plates. To identify potentiators of ΔF508-CFTR, a double-addition HTS assay format was developed. During the first addition, a Cl^--free medium with or without test compound was added to each well. […] (in mM) NaCl 160, KCl 4.5, CaCl2 2, MgCl2 1, HEPES 10, pH 7.4 with NaOH. • Chloride-free bath solution: Chloride salts in Bath Solution #1 are substituted with gluconate salts. • CC2-DMPE: Prepared as a 10 mM stock solution in DMSO and stored at -20° C. • DiSBAC2(3): Prepared as a 10 mM stock in DMSO and stored at -20° C. NIH3T3 mouse fibroblasts stably expressing ΔF508-CFTR are used for optical measurements of membrane potential. […] For all optical assays, the cells were seeded at 30,000/well in 384-well matrigel-coated plates and cultured for 2 hrs at 37° C. before culturing at 27° C. for 24 hrs. for the potentiator assay.

T1 sequence (P13569 with tags, fused parts or gaps DEL508-508): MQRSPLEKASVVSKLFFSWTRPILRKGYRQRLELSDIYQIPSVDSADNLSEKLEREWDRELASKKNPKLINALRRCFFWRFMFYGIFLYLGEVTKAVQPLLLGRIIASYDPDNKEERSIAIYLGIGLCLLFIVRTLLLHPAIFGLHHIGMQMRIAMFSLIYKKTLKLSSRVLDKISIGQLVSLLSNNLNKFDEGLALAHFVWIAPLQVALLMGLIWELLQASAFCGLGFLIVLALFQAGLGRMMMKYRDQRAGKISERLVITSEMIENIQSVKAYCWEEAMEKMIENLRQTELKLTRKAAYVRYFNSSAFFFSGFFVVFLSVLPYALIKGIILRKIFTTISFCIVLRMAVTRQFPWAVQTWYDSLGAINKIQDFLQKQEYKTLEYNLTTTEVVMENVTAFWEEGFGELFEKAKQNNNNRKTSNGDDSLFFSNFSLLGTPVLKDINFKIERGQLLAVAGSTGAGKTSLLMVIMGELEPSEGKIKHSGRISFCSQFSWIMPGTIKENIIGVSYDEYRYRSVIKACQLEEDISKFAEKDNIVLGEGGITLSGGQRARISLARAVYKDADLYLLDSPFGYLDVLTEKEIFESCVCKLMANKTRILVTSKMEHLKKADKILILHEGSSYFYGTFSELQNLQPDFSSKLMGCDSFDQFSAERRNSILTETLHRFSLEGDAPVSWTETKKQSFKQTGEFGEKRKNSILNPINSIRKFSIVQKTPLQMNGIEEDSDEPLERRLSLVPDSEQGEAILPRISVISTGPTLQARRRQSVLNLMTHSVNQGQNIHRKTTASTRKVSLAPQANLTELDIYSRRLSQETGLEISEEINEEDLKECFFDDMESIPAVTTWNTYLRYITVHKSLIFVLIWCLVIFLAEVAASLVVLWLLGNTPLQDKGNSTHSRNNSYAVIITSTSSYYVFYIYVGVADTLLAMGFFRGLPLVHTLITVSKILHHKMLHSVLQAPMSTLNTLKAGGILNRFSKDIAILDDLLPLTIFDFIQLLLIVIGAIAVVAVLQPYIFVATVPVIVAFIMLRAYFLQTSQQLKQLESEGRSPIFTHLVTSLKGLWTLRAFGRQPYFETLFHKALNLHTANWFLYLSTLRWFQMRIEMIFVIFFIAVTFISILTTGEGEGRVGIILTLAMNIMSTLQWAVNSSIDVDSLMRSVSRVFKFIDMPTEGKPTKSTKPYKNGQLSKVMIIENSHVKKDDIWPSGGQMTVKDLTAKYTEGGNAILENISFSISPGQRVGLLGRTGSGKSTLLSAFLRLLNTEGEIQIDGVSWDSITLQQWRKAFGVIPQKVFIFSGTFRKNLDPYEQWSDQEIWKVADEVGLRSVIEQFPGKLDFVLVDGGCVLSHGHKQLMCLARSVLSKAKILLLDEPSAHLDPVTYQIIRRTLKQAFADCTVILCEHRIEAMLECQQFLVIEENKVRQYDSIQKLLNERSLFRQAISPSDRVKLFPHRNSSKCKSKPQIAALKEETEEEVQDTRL

Row | SMILES | EC50 [µM] | % Activity
1 | COc1ccc(Cl)cc1-c1cc2cc[nH]c2cc1NC(=O)c1c[nH]c2ccccc2c1=O [Compound 1, N-[5-(5-chloro-2-methoxy-phenyl)-1H-indol-6-yl]-4-oxo-1H-quinoline-3-carboxamide] | < 10 | ++ (between 25% to 100%)
2 | COc1cc(NC(=O)c2c[nH]c3ccccc3c2=O)ccc1C(C)(C)C [Compound 2, N-(3-methoxy-4-tert-butyl-phenyl)-4-oxo-1H-quinoline-3-carboxamide] | < 10 | ++ (between 25% to 100%)
3 | O=C(Nc1ccccc1N1CCOCC1)c1c[nH]c2ccccc2c1=O [Compound 4, N-(2-morpholinophenyl)-4-oxo-1H-quinoline-3-carboxamide] | < 10 | ++ (between 25% to 100%)
4 | CC(C)(CO)c1ccc(NC(=O)c2c[nH]c3ccccc3c2=O)cc1 [Compound 5, N-[4-(2-hydroxy-1,1-dimethyl-ethyl)phenyl]-4-oxo-1H-quinoline-3-carboxamide] | 10 to 25 | ++ (between 25% to 100%)
5 | CC(C)(C)c1ccc(NC(=O)c2c[nH]c3ccccc3c2=O)cc1CO [Compound 6, N-[3-(hydroxymethyl)-4-tert-butyl-phenyl]-4-oxo-1H-quinoline-3-carboxamide] | < 10 | +++ (>100%)
6 | CCOc1cc(NC(=O)c2c[nH]c3ccccc3c2=O)c(OCC)cc1NC(=O)c1ccccc1 [Compound 7, N-(4-benzoylamino-2,5-diethoxy-phenyl)-4-oxo-1H-quinoline-3-carboxamide] | 25 to 60 | + (<25%)
7 | CCc1ccc(NC(=O)c2c[nH]c3ccccc3c2=O)cc1N [Compound 8, N-(3-amino-4-ethyl-phenyl)-4-oxo-1H-quinoline-3-carboxamide] | < 10 | ++ (between 25% to 100%)
8 | NS(=O)(=O)c1cccc(NC(=O)c2c[nH]c3ccccc3c2=O)c1 [Compound 9, 4-oxo-N-(3-sulfamoylphenyl)-1H-quinoline-3-carboxamide] | 25 to 60 | + (<25%)
9 | O=C(Nc1ccc2c(c1)NCCCC2)c1c[nH]c2ccccc2c1=O [Compound 10, 1,4-dihydro-N-(2,3,4,5-tetrahydro-1H-benzo[b]azepin-8-yl)-4-oxoquinoline-3-carboxamide] | < 10 | ++ (between 25% to 100%)
10 | CC(C)(C)c1ccc(NC(=O)c2c[nH]c3ccccc3c2=O)cc1C#N [Compound 13, N-(3-cyano-4-tert-butyl-phenyl)-4-oxo-1H-quinoline-3-carboxamide] | < 10 | ++ (between 25% to 100%)
11 | COC(=O)Nc1cc(NC(=O)c2c[nH]c3ccccc3c2=O)ccc1C(C)(C)C [Compound 14, [5-[(4-oxo-1H-quinolin-3-yl)carbonylamino]-2-tert-butyl-phenyl]aminoformic acid methyl ester] | < 10 | ++ (between 25% to 100%)
12 | COc1ncccc1NC(=O)c1c[nH]c2ccccc2c1=O [Compound 15, N-(2-methoxy-3-pyridyl)-4-oxo-1H-quinoline-3-carboxamide] | 10 to 25 | ++ (between 25% to 100%)
13 | CCCOc1ccc(N)cc1NC(=O)c1c[nH]c2ccccc2c1=O [Compound 17, N-(5-Amino-2-propoxy-phenyl)-4-oxo-1H-quinoline-3-carboxamide] | < 10 | ++ (between 25% to 100%)
14 | O=C(Nc1ccc(S(=O)(=O)Nc2ccccn2)cc1)c1c[nH]c2ccccc2c1=O [Compound 21, 4-oxo-N-[4-(2-pyridylsulfamoyl)phenyl]-1H-quinoline-3-carboxamide] | 25 to 60 | + (<25%)
15 | O=C(Nc1ccc2c(c1)NCC21CC1)c1c[nH]c2ccccc2c1=O [Compound 22, 4-Oxo-1,4-dihydro-quinoline-3-carboxylic acid N-(1′,2′-dihydrospiro[cyclopropane-1,3′-[3H]indol]-6′-yl)-amide] | 10 to 25 | ++ (between 25% to 100%)
16 | O=C(Nc1cccc(S(=O)(=O)N2CCCC2)c1)c1c[nH]c2ccccc2c1=O [Compound 24, 4-oxo-N-(3-pyrrolidin-1-ylsulfonylphenyl)-1H-quinoline-3-carboxamide] | 25 to 60 | + (<25%)
17 | COCCOC(=O)NCC(C)(C)c1ccc(NC(=O)c2c[nH]c3ccccc3c2=O)cc1 [Compound 28, [2-methyl-2-[4-[(4-oxo-1H-quinolin-3-yl)carbonylamino]phenyl]-propyl]aminoformic acid 2-methoxyethyl ester] | 10 to 25 | ++ (between 25% to 100%)
18 | CC(C)n1cc(C(=O)Nc2ccccc2)c(=O)c2ccccc21 [Compound 29, 1-isopropyl-4-oxo-N-phenyl-1H-quinoline-3-carboxamide] | 10 to 25 | ++ (between 25% to 100%)
19 | COC(=O)Nc1cc(NC(=O)c2c[nH]c3ccccc3c2=O)ccc1C(C)C [Compound 30, [2-isopropyl-5-[(4-oxo-1H-quinolin-3-yl)carbonylamino]phenyl]aminoformic acid methyl ester] | < 10 | ++ (between 25% to 100%)
20 | O=C(Nc1cc2[nH]ccc2cc1Cl)c1c[nH]c2ccccc2c1=O [Compound 32, N-(5-chloro-1H-indol-6-yl)-4-oxo-1H-quinoline-3-carboxamide] | < 10 | ++ (between 25% to 100%)
21 | O=C(Nc1ccc2cc[nH]c2c1)c1c[nH]c2ccccc2c1=O [Compound 33, N-(1H-indol-6-yl)-4-oxo-1H-quinoline-3-carboxamide] | < 10 | ++ (between 25% to 100%)

Continued, values first:

Row | EC50 [µM] | % Activity | SMILES
22 | < 10 | ++ (between 25% to 100%) | COc1ccccc1Oc1ccc(C(F)(F)F)cc1NC(=O)c1c[nH]c2ccccc2c1=O [Compound 3, N-[2-(2-methoxyphenoxy)-5-(trifluoromethyl)phenyl]-4-oxo-1H-quinoline-3-carboxamide]
23 | < 10 | ++ (between 25% to 100%) | O=C(Nc1ccccc1-c1ccccc1C(F)(F)F)c1c[nH]c2ccccc2c1=O [Compound 11, 4-oxo-N-[2-[2-(trifluoromethyl)phenyl]phenyl]-1H-quinoline-3-carboxamide]
24 | < 10 | ++ (between 25% to 100%) | CN(C)c1ccc(-c2ccccc2NC(=O)c2c[nH]c3ccccc3c2=O)cc1 [Compound 12, N-[2-(4-dimethylaminophenyl)phenyl]-4-oxo-1H-quinoline-3-carboxamide]
25 | < 10 | ++ (between 25% to 100%) | CCCc1ccccc1NC(=O)c1c[nH]c2ccccc2c1=O [Compound 16, 4-oxo-N-(2-propylphenyl)-1H-quinoline-3-carboxamide]
26 | < 10 | ++ (between 25% to 100%) | O=C(Nc1cccc2c1Cc1ccccc1-2)c1c[nH]c2ccccc2c1=O [Compound 18, N-(9H-fluoren-1-yl)-4-oxo-1H-quinoline-3-carboxamide]
27 | 10 to 25 | + (<25%) | O=C(Nc1ccc2ccccc2n1)c1c[nH]c2ccccc2c1=O [Compound 19, 4-oxo-N-(2-quinolyl)-1H-quinoline-3-carboxamide]
28 | < 10 | ++ (between 25% to 100%) | Cc1ccccc1Oc1ccccc1NC(=O)c1c[nH]c2ccccc2c1=O [Compound 20, N-[2-(2-methylphenoxy)phenyl]-4-oxo-1H-quinoline-3-carboxamide]
29 | < 10 | ++ (between 25% to 100%) | CCOc1ccccc1-c1cc(C(C)(C)C)c(O)cc1NC(=O)c1c[nH]c2ccccc2c1=O [Compound 23, N-[2-(2-ethoxyphenyl)-5-hydroxy-4-tert-butyl-phenyl]-4-oxo-1H-quinoline-3-carboxamide]
30 |  | ++ (between 25% to 100%) | CC(=O)Nc1cccc(-c2ccccc2NC(=O)c2c[nH]c3ccccc3c2=O)c1 [Compound 25, N-[2-(3-acetylaminophenyl)phenyl]-4-oxo-1H-quinoline-3-carboxamide]
31 | < 10 | ++ (between 25% to 100%) | O=C(Nc1ccccc1N1CCCCC1)c1c[nH]c2ccccc2c1=O [Compound 26, 4-oxo-N-[2-(1-piperidyl)phenyl]-1H-quinoline-3-carboxamide]
32 | < 10 | ++ (between 25% to 100%) | Cc1ccc(NC(=O)c2c[nH]c3ccccc3c2=O)cc1 [Compound 31, 4-oxo-N-(p-tolyl)-1H-quinoline-3-carboxamide]
